From patent US7659053B2, “Methods of alteration of surface affinities using non-chemical force-creating fields” (President and Fellows of Harvard College, priority 2003, dated 2010)

system: BCE cells; assay: Cell motility screening assay: migration of patterned BCE cells out of patterns after voltage pulse; format: cell-based, Bovine; details: drug added before voltage pulse (−1.2 V, 30 s), fumagillin 100 mM, cycloheximide 1 mg/mL, nocodozole 1 mg/mL
Method: Time-lapse images were acquired on a Leica inverted microscope equipped with a commercially available on-stage incubation chamber that maintained the temperature at 37° C. and the CO2 concentration at 10% at all times. To prevent the evaporation of water, the culture dish was covered with a thin layer of mineral oil (Sigma-Aldrich, St. Louis, Mo.). Phase-contrast images were acquired by a Hamamatsu video camera using METAMORPH® software (Universal Imaging Inc., Downingtown, Pa.). Fluorescent images were acquired through a charge-coupled device from Hamamatsu (ORCA-ER). Quantification of cell shapes for the analysis of the fractional coverage of the surface was performed with an image analysis routine in Metamorph. Briefly, the cells were outlined and the total areas that the cells occupied were calculated. The calculated area was then divided by the total area of the field of view in the micrograph to obtain the normalized fractional coverage by cells. The LIVE/DEAD® assay kit was obtained from Molecular Probes (Eugene, Oreg.).
BCE cells were patterned on a gold-coated substrate coated with C18 and C11EG3 thiols in discrete patterned regions, similar to those shown in FIG. 1 by techniques similar to those described above in Example 1. Additionally, serum-containing media was used in some instances. […]

Row | Compound | effect on cell migration out of the patterns
1 | CO[C@@H]1[C@H](OC(=O)/C=C/C=C/C=C/C=C/C(=O)O)CC[C@]2(CO2)[C@H]1[C@@]1(C)O[C@@H]1CC=C(C)C [Fumagillin, fumagillin] | reduce the rates of cell migration
2 | C[C@@H]1C[C@@H]([C@H](O)CC2CC(=O)NC(=O)C2)C(=O)[C@@H](C)C1 [cycloheximide] | reduce the rates of cell migration

system: NIH 3T3 fibroblast cells; assay: Culture of NIH 3T3 fibroblasts on micropatterned SAMs on gold and palladium; format: cell-based; details: NIH 3T3 cells
Method: To test the ability of SAMs on palladium to support the adhesion and growth of cells in micropatterns, certain features on the substrates were defined using microcontact printing, using techniques similar to those described above. A poly(dimethylsiloxane) (PDMS) stamp that carried microfeatures was inked with 2 mM octadecanethiol (C18) in ethanol, dried under a stream of nitrogen, then brought it into contact with the palladium films for 2 to 10 seconds. Next, the palladium film was immersed in ethanolic solutions containing 2 mM of thiols A, B, or C for up to 50 hours.
NIH 3T3 fibroblast cells were then cultured on these micropatterned substrates. […] In contrast, OEG-terminated SAMs on the same substrate prevented the adhesion of cells during the same times.

Row | Compound | adhesion of cells on SAM region
3 | OCCOCCOCCOCCOCCOCCOCCOCCCS [Compound 2, HS(CH2)3(OCH2CH2)7OH] | prevented the attachment of cells
4 | OCCOCCOCCOCCCCCCCCCCCS [Compound C11EG3, HS—(CH2)11—(O—CH2—CH2)3—OH] | prevented the attachment of cells
5 | OCCOCCOCCOCCOCCOCCOCCCCCCCCCCCS [thiol B, HS(CH2)11(OCH2CH2)6OH] | prevented the attachment of cells
6 | CCCCCCCCCCCCCCCCCCS [Compound C18, HS—(CH2)17—CH3] | supported the adhesion of cells
